# Experiments:
# Type in all cases: in vivo
# [1] = system: rice seedlings [cvs. “Koshihikari” (tall), “Tan-ginbozu” (dwarf), “Waito C” (dwarf)]; test: Shoot growth of rice seedlings, combinations with GA3; conditions: 7 days after treatment, 1 kg/ha ammonium sulphate added; for Shoot growth Waito C [% of Control]: 100% = 8.7 cm; for Shoot growth Tan-ginbozu [% of Control]: 100% = 9.4 cm; for Shoot growth Koshihikari [% of Control]: 100% = 17.4 cm
# Experimental: (§1) Unless otherwise noted, the growth regulating proerties of different compounds in different formulations were determined under greenhouse conditions as follows: […]
# (§2) Test plants were grown in plastic pots of approximately 12.5 cm in diameter in a substrate provided with sufficient nutrients and water. At an appropriate shoot length the plants were treated with aqueous sprays of the formulations. The growth-regulating action observed was confirmed at the end of the experiment by measuring the height of the plants. The results obtained were compared with the growth height of the untreated plants.
# The synergizing effect of compound VII on shoot elongation in rice is shown in the results of Example 7.
# Enhanced shoot growth of rice seedlings [cvs. “Koshihikari” tall), “Tan-ginbozu” (dwarf), “Waito C” (dwarf)] 7 days after treatment with combinations of compound 6 with GA3^d
# oats = test: Greenhouse shoot length test, oats; conditions: 1% formulations in cyclohexanone: Emulan EL = 4:1; note: key: 0: no effect; +: low activity; ++: intermediate activity; +++: high activity
# Experimental: as §1, §2
# barley = test: Greenhouse shoot length test, barley; conditions: for Shoot length reduction [activity, relative to control] in barley: 1% formulations in cyclohexanone: Emulan EL = 4:1; for Shoot length Barley [% of control]: 1% formulations in Atlas G 1086; for Shoot length reduction [activity, relative to control] in barley: key: 0: no effect; +: low activity; ++: intermediate activity; +++: high activity
# Experimental: as §1, §2
# (§3) Assays with wheat, barley, oat, and rye plants were carried out as described above. The aqueous spray solutions were prepared as follows: […]
# wheat = test: Greenhouse shoot length test, wheat; conditions: for Shoot length reduction [activity, relative to control] in wheat: 1% formulations in cyclohexanone: Emulan EL = 4:1; for Shoot length Wheat [% of control]: 1% formulations in Atlas G 1086; for dosages of active ingredient needed to obtain results equivalent to compounds VI, VII, and IX: in wheat
# Experimental: as §1, §2, §3
# rye = test: Greenhouse shoot length test, rye; conditions: 1% formulations in cyclohexanone: Emulan EL = 4:1; note: key: 0: no effect; +: low activity; ++: intermediate activity; +++: high activity
# Experimental: as §1, §2
# rice = test: Greenhouse shoot length test, rice; conditions: 1% formulations in cyclohexanone: Emulan EL = 4:1; note: key: 0: no effect; +: low activity; ++: intermediate activity; +++: high activity
# Experimental: as §1, §2
# [2] = system: small grains and rice (wheat, barley, oats, rye, rice); test: Shoot length reduction in small grains and rice (statements across species); conditions: for shoot length reduction compared with compounds II to V: Examples 1 and 2; for activity-enhancing effects of ethoxylated castor oil R 15: barley and wheat, Example 5; for dosages needed to obtain results equivalent to compounds VI, VII, and IX: in these plant species, applied in commercial formulations; for activity in the other plant species compared with wheat: plant species other than wheat
# Experimental: as §1, §2
# [3] = system: spring barley (cv. “Alexis”); test: Shoot height reduction in spring barley, synergistic combinations; conditions: 20 days after treatment
# Experimental: as §1, §2
# (§4) To show the synergistic effects of formulations in accordance with the instant invention together with further growth regulating agents, formulations in accordance with the invention were prepared and additional active ingredients added.
# Shoot height reduction in spring barley (cv. “Alexis”) 20 days after treatment with combinations of standard compound S2 and compound VII
# Shoot height reduction in spring barley (cv. “Alexis”) 20 days after treatment with combinations of standard compound S4 and compound VII
# [4] = system: spring wheat (cv. “Ralle”); test: Shoot height reduction in spring wheat, synergistic combinations
# Experimental: as §1, §2, §4
# Shoot height reduction in spring wheat (cv. “Ralle”) 21 days after treatment with combinations of standard compound S4 and compound VII
# Shoot height reduction in spring wheat (cv. “Ralle”) 13 days after treatment with combinations of standard compound S5 and compound VII
# [5] = 250 g/ha ai, adjuvant R 15 500 g/ha
# [6] = 750 g/ha ai, adjuvant R 15 500 g/ha
molecule,measurement,setting,value
"C=C1C[C@]23C[C@@]1(O)CC[C@H]2[C@@]12C=C[C@H](O)[C@@](C)(C(=O)O1)[C@H]2[C@@H]3C(=O)O (single isomer, unassigned; ent-3) [S6, ent-3α,10,13-trihydroxy-20-norgiberrell-1,16-diene-7,19-dioic acid 19,10-lactone, reference compound]",Shoot growth Waito C [% of Control],[1]; S6 1.25 g/ha ai,115 % of Control
same,Shoot growth Tan-ginbozu [% of Control],[1]; S6 1.25 g/ha ai,128 % of Control
same,Shoot growth Koshihikari [% of Control],[1]; S6 1.25 g/ha ai,109 % of Control
same,Shoot growth Waito C [% of Control],[1]; S6 2.50 g/ha ai,143 % of Control
same,Shoot growth Tan-ginbozu [% of Control],[1]; S6 2.50 g/ha ai,160 % of Control
same,Shoot growth Koshihikari [% of Control],[1]; S6 2.50 g/ha ai,112 % of Control
same,Shoot growth Waito C [% of Control],[1]; S6 5.00 g/ha ai,190 % of Control
same,Shoot growth Tan-ginbozu [% of Control],[1]; S6 5.00 g/ha ai,186 % of Control
same,Shoot growth Koshihikari [% of Control],[1]; S6 5.00 g/ha ai,124 % of Control
"CC1CC23CC1(O)CCC2C12CC=CC(C)(C(=O)O1)C2C3C(=O)O (stereo not drawn) [Comp. II, exo-16,17-Dihydro-GA5]","Shoot length reduction [activity, relative to control] in oats",oats,0
same,"Shoot length reduction [activity, relative to control] in barley",barley,+
same,"Shoot length reduction [activity, relative to control] in wheat",wheat,+
same,"Shoot length reduction [activity, relative to control] in rye",rye,++
"CCCO[C@]12CC[C@@H]3[C@](C[C@H]1C)(C2)[C@@H](C(=O)O)[C@H]1[C@@]32CC=C[C@]1(C)C(=O)O2 [Comp. IX, exo-16,17-Dihydro-GA5-13-n-propyl ether]","Shoot length reduction [activity, relative to control] in oats",oats,++
same,"Shoot length reduction [activity, relative to control] in rice",rice,++
same,"Shoot length reduction [activity, relative to control] in barley",barley,++
same,"Shoot length reduction [activity, relative to control] in wheat",wheat,++
same,"Shoot length reduction [activity, relative to control] in rye",rye,++
same,shoot length reduction compared with compounds II to V,[2],superior to compounds II to V
"CC(=O)OC12CCC3C(CC1C)(C2)C(C(=O)O)C1C2(C)C=CCC13OC2=O (stereo not drawn) [Comp. VI, endo-16,17-Dihydro-GA5-13-acetate]","Shoot length reduction [activity, relative to control] in oats",oats,++
same,"Shoot length reduction [activity, relative to control] in rice",rice,+++
same,"Shoot length reduction [activity, relative to control] in barley",barley,+++
same,Shoot length Barley [% of control],barley; 1.6 g/ha ai,95 % of control
same,Shoot length Barley [% of control],barley; 3.1 g/ha ai,84 % of control
same,Shoot length Barley [% of control],barley; 6.3 g/ha ai,65 % of control
same,Shoot length Barley [% of control],barley; 12.5 g/ha ai,53 % of control
same,"Shoot length reduction [activity, relative to control] in wheat",wheat,+++
same,Shoot length Wheat [% of control],wheat; 1.6 g/ha ai,88 % of control
same,Shoot length Wheat [% of control],wheat; 3.1 g/ha ai,88 % of control
same,Shoot length Wheat [% of control],wheat; 6.3 g/ha ai,68 % of control
same,Shoot length Wheat [% of control],wheat; 12.5 g/ha ai,64 % of control
same,"Shoot length reduction [activity, relative to control] in rye",rye,+++
same,shoot length reduction compared with compounds II to V,[2],superior to compounds II to V
"O=P(O)(O)CCCl [S1, ethephon, reference compound]",Shoot length [% of control] Barley,barley; [5],101 % of control
same,Shoot length [% of control] Barley,"barley; 250 g/ha ai, no adjuvant",95 % of control
same,Shoot length [% of control] Wheat,wheat; [5],92 % of control
same,Shoot length [% of control] Wheat,"wheat; 250 g/ha ai, no adjuvant",93 % of control
same,activity-enhancing effects of ethoxylated castor oil R 15,[2],not or only at a far lower degree found
same,"dosages needed to obtain results equivalent to compounds VI, VII, and IX",[2],approximately 20 times higher
"C[N+](C)(C)CCCl [S2, chlormequat chloride, reference compound]",% Shoot height reduction Actual,[3]; 750 g/ha a.i.,11%
same,% Shoot height reduction Actual,[3]; 1500 g/ha a.i.,10%
same,Shoot length [% of control] Barley,barley; [6],94 % of control
same,Shoot length [% of control] Barley,"barley; 750 g/ha ai, no adjuvant",94 % of control
same,Shoot length [% of control] Wheat,wheat; [6],75 % of control
same,Shoot length [% of control] Wheat,"wheat; 750 g/ha ai, no adjuvant",83 % of control
same,"dosages of active ingredient needed to obtain results equivalent to compounds VI, VII, and IX",wheat,approximately 100 times higher
same,activity-enhancing effects of ethoxylated castor oil R 15,[2],not or only at a far lower degree found
same,activity in the other plant species compared with wheat,[2],significantly less active
"C[N+]1(C)CCCCC1 [S3, mepiquat chloride, reference compound]","dosages of active ingredient needed to obtain results equivalent to compounds VI, VII, and IX",wheat,approximately 100 times higher
same,activity in the other plant species compared with wheat,[2],significantly less active
"CCOC(=O)C1CC(=O)C(=C(O)C2CC2)C(=O)C1 (centres unmarked) [S5, trinexapac-ethyl, reference compound]","dosages needed to obtain results equivalent to compounds VI, VII, and IX",[2],approximately 20 times higher
same,% Shoot height reduction Actual,"[4]; 30 g/ha a.i., 13 days after treatment",14%
"Dichloromethano-16,17-dihydro-GA5-13-acetate [Comp. V]","Shoot length reduction [activity, relative to control] in oats",oats,+
same,"Shoot length reduction [activity, relative to control] in barley",barley,0
same,Shoot length Barley [% of control],barley; 1.6 g/ha ai,99 % of control
same,Shoot length Barley [% of control],barley; 3.1 g/ha ai,97 % of control
same,Shoot length Barley [% of control],barley; 6.3 g/ha ai,82 % of control
same,Shoot length Barley [% of control],barley; 12.5 g/ha ai,76 % of control
same,"Shoot length reduction [activity, relative to control] in wheat",wheat,0
same,Shoot length Wheat [% of control],wheat; 1.6 g/ha ai,101 % of control
same,Shoot length Wheat [% of control],wheat; 3.1 g/ha ai,95 % of control
same,Shoot length Wheat [% of control],wheat; 6.3 g/ha ai,84 % of control
same,Shoot length Wheat [% of control],wheat; 12.5 g/ha ai,75 % of control
same,"Shoot length reduction [activity, relative to control] in rye",rye,+
"endo-16,17-Dihydro-GA5 [Comp. III]","Shoot length reduction [activity, relative to control] in oats",oats,0
same,"Shoot length reduction [activity, relative to control] in barley",barley,++
same,"Shoot length reduction [activity, relative to control] in wheat",wheat,++
same,"Shoot length reduction [activity, relative to control] in rye",rye,+++
"prohexadione-Ca [S4, reference compound]","dosages needed to obtain results equivalent to compounds VI, VII, and IX",[2],approximately 20 times higher
same,% Shoot height reduction Actual,"[4]; 30 g/ha a.i., 21 days after treatment",6%
same,% Shoot height reduction Actual,"[4]; 60 g/ha a.i., 21 days after treatment",15%
